The record followed here is patent US20240277658A1, “NLRP3 ACTIVATORS FOR USE IN THE TREATMENT OF INFECTIOUS DISEASES OR CANCER BY ACTIVATING NLRP3 INFLAMMASOME” (ALBERT-LUDWIGS-UNIVERSITÄT FREIBURG, priority 2020, published 2024).

“And” between values parts separate entries of the source, which are not always exact repeats. Equal entries are not always repeated. Where two headings read alike, the source gives them in different places.

Experiment [1] relates to BMDCs. The experiment in a line: LDH release (lytic cell death, pyroptosis) from LPS-primed BMDCs. Type of experiment: cell-based, mouse. Particulars: compound 50 μM; for Average (% positive control): LDH release, positive control nigericin 5 μM; for cytotoxicity at 50 µM: Mus musculus, BMDC, LPS-primed BMDCs. The essentials: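 Mouse BMDCs (7-9 days differentiated, GM-CSF) primed with 50 ng ml^−1 E. coli K12 LPS for 3 hours, then exposed 3 hours to compounds (50 μM unless indicated) or activators (nigericin 5 μM; R837, CL097 100 μM). Lytic death measured as LDH release by colorimetric assay, triplicate wells.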

For experiment [2], the target named is T1, NLRP3 inflammasome (Mus musculus, UniProt Q8R4B8).
T1 construct: endogenous in cells; host or cells: primary mouse bone marrow-derived dendritic cells (BMDCs), LPS-primed
T1 sequence (Q8R4B8 whole entry): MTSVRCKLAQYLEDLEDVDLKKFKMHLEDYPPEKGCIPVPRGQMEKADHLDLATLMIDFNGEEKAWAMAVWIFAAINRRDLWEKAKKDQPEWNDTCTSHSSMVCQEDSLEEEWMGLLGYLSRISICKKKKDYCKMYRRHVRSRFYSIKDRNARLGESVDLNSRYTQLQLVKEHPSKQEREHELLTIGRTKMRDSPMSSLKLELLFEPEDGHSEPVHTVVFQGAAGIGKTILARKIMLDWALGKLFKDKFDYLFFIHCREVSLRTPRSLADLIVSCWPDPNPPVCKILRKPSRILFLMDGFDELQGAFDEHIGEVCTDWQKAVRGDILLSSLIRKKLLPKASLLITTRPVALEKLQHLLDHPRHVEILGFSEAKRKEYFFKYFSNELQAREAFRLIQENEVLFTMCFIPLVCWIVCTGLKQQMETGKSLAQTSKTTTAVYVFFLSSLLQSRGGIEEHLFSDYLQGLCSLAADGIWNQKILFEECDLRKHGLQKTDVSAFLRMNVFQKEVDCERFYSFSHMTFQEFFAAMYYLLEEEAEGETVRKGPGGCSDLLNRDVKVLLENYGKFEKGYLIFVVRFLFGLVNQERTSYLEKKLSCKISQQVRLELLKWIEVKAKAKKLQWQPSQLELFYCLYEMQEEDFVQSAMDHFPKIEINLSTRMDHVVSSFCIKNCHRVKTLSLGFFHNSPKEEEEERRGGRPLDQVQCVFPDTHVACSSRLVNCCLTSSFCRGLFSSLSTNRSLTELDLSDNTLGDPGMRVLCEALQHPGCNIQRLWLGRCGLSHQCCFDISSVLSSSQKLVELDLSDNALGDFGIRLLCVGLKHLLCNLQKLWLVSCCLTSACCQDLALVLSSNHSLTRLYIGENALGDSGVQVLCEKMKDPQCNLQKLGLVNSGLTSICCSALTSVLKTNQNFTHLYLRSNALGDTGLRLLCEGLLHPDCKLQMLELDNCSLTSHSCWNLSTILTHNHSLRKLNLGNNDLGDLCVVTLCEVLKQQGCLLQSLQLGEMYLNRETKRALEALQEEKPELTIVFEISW
The experiment in a line: IL-1β release from LPS-primed BMDCs (ELISA) as readout of NLRP3 inflammasome activation. Type of experiment: cell-based. The note with it: compound 50 μM; for Average (% positive control): IL-1β release, positive control nigericin 5 μM; for Average IL-1β / IL-1β: LPS-primed BMDCs; for IL-1β: single replicates. The essentials:
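NLRP3 inflammasome activation was read out as IL-1β released into the supernatant, measured by ELISA. Murine BMDCs were primed with LPS (50 ng ml^−1, 3 hours), then incubated with compounds for 3 hours, with each condition run in three technical replicates. Nigericin at 5 μM acted as the positive control activator, and IL-1β release was also expressed as a percentage of that control.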
A general note: In an ELISA, binding on a coated surface is turned into a signal by an enzyme label.

The mark [3] stands for this setting: read-out: Average LDH release (% of max.).
Setting [4] is: single replicates, read-out: LDH release (% of max.).

For `O=C(Nc1ccccc1)Nc1cccc(NC(=O)C2CCCC2)c1` [L01.103, N-{3-[(phenylcarbamo-yl)amino]phenyl}cyclo-pentanecarboxamide], the “Average (% positive control)” value in experiment [1] is given as 10.791 % positive control. In addition, the cytotoxicity at 50 µM in experiment [1] (setting [3]) is 7.89%. For the same compound, the cytotoxicity at 50 µM in experiment [1] (setting [4]) amounted to 6.58%. Also, in experiment [2], the “Average (% positive control)” value is listed as 1.624 % positive control; the “Average IL-1β” value was determined as 0.116 ng/mL; the “IL-1β” value is 0.060 ng/mL and 0.049 ng/mL and 0.240 ng/mL.

Consider `O=C(Nc1ccccc1)Nc1ccc(NC(=O)C2CCCC2)cc1` [L01.104, N-{4-[(phenylcarbamo-yl)amino]phenyl}cyclo-pentanecarboxamide], for which the “Average (% positive control)” value in experiment [1] was found to be 24.873 % positive control; in experiment [2], 16.230 % positive control. The figures for the cytotoxicity at 50 µM in experiment [1] (setting [3]) and in experiment [1] (setting [4]) were 18.2% and 17.2%, respectively. The “Average IL-1β” value in experiment [2] came to 1.163 ng/mL. Further, in experiment [2], the “IL-1β” value was 1.103 ng/mL and 1.142 ng/mL and 1.246 ng/mL.

For `O=C(Nc1ccccc1)Nc1cccc([N+](=O)[O-])c1` [L01.108, 3-(3-nitrophenyl)-1-phenylurea], the figures for the “Average (% positive control)” value in experiment [1] and in experiment [2] were 14.362 % positive control and 0.973 % positive control, respectively. Besides, the results for the cytotoxicity at 50 µM in experiment [1] (setting [3]) and in experiment [1] (setting [4]) were 10.5% and 10.9%, respectively. The “Average IL-1β” value in experiment [2] was 0.070 ng/mL. Moreover, the “IL-1β” value in experiment [2] was 0.076 ng/mL and 0.061 ng/mL and 0.072 ng/mL.

In the case of `CC(=O)Nc1ccc(NC(=O)Nc2ccccc2)cc1` [L01.109, N-{4-[(phenylcarbamo-yl)amino]phenyl}acet-amide], the “Average (% positive control)” value in experiment [1] is on record as 10.912 % positive control. Moreover, the cytotoxicity at 50 µM in experiment [1] (setting [3]) turned out to be 7.98%. Also, in experiment [1] (setting [4]), the cytotoxicity at 50 µM came to 8.46%. Moreover, in experiment [2], the “Average (% positive control)” value was determined as 1.269 % positive control; the “Average IL-1β” value is 0.091 ng/mL; the “IL-1β” value is 0.120 ng/mL and 0.083 ng/mL and 0.070 ng/mL.

As to `CC1Oc2ccc(NC(=O)Nc3ccccc3)cc2NC1=O` (stereo not drawn) [L01.110, 3-(2-methyl-3-oxo-3,4-dihydro-2H-1,4-benzox-azin-6-yl)-1-phenylurea], the “Average (% positive control)” value in experiment [1] was determined as 46.015 % positive control. Also, the cytotoxicity at 50 µM in experiment [1] (setting [3]) amounted to 33.7%. Further, the cytotoxicity at 50 µM in experiment [1] (setting [4]) came out at 34.8%. Besides, in experiment [2], the “Average (% positive control)” value came out at 36.599 % positive control; the “Average IL-1β” value is 2.624 ng/mL; the “IL-1β” value was 2.505 ng/mL and 2.943 ng/mL and 2.423 ng/mL.

In the case of `N#Cc1ccc(NC(=O)NC(CO)c2nc(-c3ccccc3)no2)cc1` (stereo not drawn) [L01.112, 1-(4-cyanophenyl)-3-[2-hydroxy-1-(3-phenyl-1,2,4-oxadiazol-5-yl)-ethyl]urea], in experiment [1], the “Average (% positive control)” value was 10.010 % positive control. Moreover, the cytotoxicity at 50 µM in experiment [1] (setting [3]) was 7.32%. The cytotoxicity at 50 µM in experiment [1] (setting [4]) amounted to 7.96%. In experiment [2], the “Average (% positive control)” value came to 0.955 % positive control; the “Average IL-1β” value was 0.068 ng/mL; the “IL-1β” value was 0.075 ng/mL and 0.069 ng/mL and 0.061 ng/mL.

In the case of `CCc1ccc(Cl)c(CC)c1NC(=O)NC(c1nc(-c2cccnc2)no1)C(C)C` (stereo not drawn) [L01.113, 1-(3-chloro-2,6-diethyl-phenyl)-3-{2-methyl-1-[3-(pyridin-3-yl)-1,2,4-oxadiazol-5-yl]propyl}-urea], the “Average (% positive control)” value in experiment [1] worked out at 49.256 % positive control. Further, the cytotoxicity at 50 µM in experiment [1] (setting [3]) stood at 36%. For the same compound, in experiment [1] (setting [4]), the cytotoxicity at 50 µM worked out at 37.4%. In experiment [2], the “Average (% positive control)” value came to 15.691 % positive control; the “Average IL-1β” value was 1.125 ng/mL; the “IL-1β” value is 1.145 ng/mL and 1.165 ng/mL and 1.064 ng/mL.

With `CC(C)C(NC(=O)Nc1ccc2c(c1)COC2)c1nc(-c2cccnc2)no1` (stereo not drawn) [L01.114, 3-(1,3-dihydro-2-benzo-furan-5-yl)-1-{2-meth-yl-1-[3-(pyridin-3-yl)-1,2,4-oxadiazol-5-yl]-propyl}urea], the “Average (% positive control)” value in experiment [1] is reported as 12.801 % positive control. Moreover, the cytotoxicity at 50 µM in experiment [1] (setting [3]) was found to be 9.37%. The cytotoxicity at 50 µM in experiment [1] (setting [4]) turned out to be 9.46%. In experiment [2], the “Average (% positive control)” value is on record as 1.049 % positive control; the “Average IL-1β” value came to 0.075 ng/mL; the “IL-1β” value is 0.073 ng/mL and 0.081 ng/mL and 0.072 ng/mL.

On to `O=C(NCc1nc(-c2ccsc2)no1)Nc1cc(Cl)cc(Cl)c1` [L01.115, 1-(3,5-dichlorophenyl)-3-{[3-(thiophen-3-yl)-1,2,4-oxadiazol-5-yl]-methyl}urea], for which the “Average (% positive control)” value is reported as 30.346 % positive control in experiment [1] and 1.584 % positive control in experiment [2]. Further, the cytotoxicity at 50 µM in experiment [1] (setting [3]) is 22.2%; in experiment [1] (setting [4]) it was 23.6%. The “Average IL-1β” value in experiment [2] is 0.114 ng/mL. In addition, in experiment [2], the “IL-1β” value was 0.122 ng/mL and 0.108 ng/mL and 0.111 ng/mL.

As to `Cc1ccc(NC(=O)Nc2ccccc2)cc1NC(=O)C(F)F` [L01.116, 2,2-difluoro-N-{2-meth-yl-5-[(phenylcarbamo-yl)amino]phenyl}acet-amide], the “Average (% positive control)” value in experiment [1] is listed as 24.685 % positive control. In experiment [1] (setting [3]), the cytotoxicity at 50 µM is 18.1%. Besides, in experiment [1] (setting [4]), the cytotoxicity at 50 µM is 18%. In experiment [2], the “Average (% positive control)” value is 16.099 % positive control; the “Average IL-1β” value stood at 1.154 ng/mL; the “IL-1β” value was 1.107 ng/mL and 1.192 ng/mL and 1.163 ng/mL.

In the case of `O=C(Nc1ccccc1)Nc1cccc(OC(F)F)c1` [L01.120, 3-[3-(difluoromethoxy)-phenyl]-1-phenylurea], the “Average (% positive control)” value in experiment [1] came to 33.449 % positive control. Besides, the cytotoxicity at 50 µM in experiment [1] (setting [3]) was 24.5%. For the same compound, the cytotoxicity at 50 µM in experiment [1] (setting [4]) was determined as 25%. Moreover, in experiment [2], the “Average (% positive control)” value is reported as 2.800 % positive control; the “Average IL-1β” value worked out at 0.201 ng/mL; the “IL-1β” value is 0.207 ng/mL and 0.200 ng/mL and 0.196 ng/mL.

For the compound `CN(C)Cc1ccc(NC(=O)Nc2ccccc2)cc1` [L01.121, 3-{4-[(dimethylamino)-methyl]phenyl}-1-phen-ylurea], the “Average (% positive control)” value in experiment [1] is 11.907 % positive control. Further, the cytotoxicity at 50 µM in experiment [1] (setting [3]) worked out at 8.71%. In addition, the cytotoxicity at 50 µM in experiment [1] (setting [4]) amounted to 7.8%. For the same compound, in experiment [2], the “Average (% positive control)” value amounted to 0.906 % positive control; the “Average IL-1β” value is 0.065 ng/mL; the “IL-1β” value is 0.066 ng/mL and 0.068 ng/mL and 0.060 ng/mL.

`O=C(Nc1ccccc1)Nc1cccc(NC(=O)NC2CC2)c1` [L01.122, 3-cyclopropyl-1-{3-[(phenylcarbamoyl)-amino]phenyl}urea]: the “Average (% positive control)” value in experiment [1] is 11.054 % positive control; in experiment [2], 1.214 % positive control. For the same compound, the cytotoxicity at 50 µM in experiment [1] (setting [3]) worked out at 8.09%; in experiment [1] (setting [4]), 9.16%. For the same compound, in experiment [2], the “Average IL-1β” value was found to be 0.087 ng/mL. In experiment [2], the “IL-1β” value is 0.072 ng/mL and 0.093 ng/mL and 0.095 ng/mL.

Take `Cc1ccc(NC(=O)Nc2ccccc2)cc1F` [L01.124, 3-(3-fluoro-4-methyl-phenyl)-1-phenylurea]: in experiment [1], the “Average (% positive control)” value was 19.235 % positive control. For the same compound, in experiment [1] (setting [3]), the cytotoxicity at 50 µM came out at 14.1%. Besides, the cytotoxicity at 50 µM in experiment [1] (setting [4]) came to 14.1%. In experiment [2], the “Average (% positive control)” value is 13.268 % positive control; the “Average IL-1β” value turned out to be 0.951 ng/mL; the “IL-1β” value is 0.928 ng/mL and 0.902 ng/mL and 1.024 ng/mL.
